Measured values taken from patent US20230293535A1, “ERBB/BTK INHIBITORS” (Dizal (Jiangsu) Pharmaceutical Co., Ltd., priority 2018, published 2023).

Experiments:
[1] = target: T1, human EGFR exon 20 H773_V774insNPH (Homo sapiens, UniProt P00533, INS773NPH); test: EGFR Exon20 NPH insertion cellular phosphorylation inhibition (MSD pEGFR Y1068/total EGFR); assay type: cell-based; settings: Ba/F3 EGFR NPH ins cells, 4 h compound, p-EGFR(Y1068)/total EGFR;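 also: IL3-independent Ba/F3 cells with constitutively phosphorylated EGFR, compound exposure at 37 °C under 5% CO2, electrochemiluminescent MSD measurement of the p-EGFR to total EGFR ratio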
T1 construct: host or cells: Ba/F3

[2] = target: T2, human EGFR exon 20 V769_D770insASV (Homo sapiens, UniProt P00533, INS769ASV); test: EGFR Exon20 ASV insertion cellular phosphorylation inhibition (MSD pEGFR Y1068/total EGFR); assay type: cell-based; settings: Ba/F3 EGFR ASV ins cells, 4 h compound, p-EGFR(Y1068)/total EGFR;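 also: electrochemiluminescent readout on an MSD SECTOR Imager, IL3-independent transduced cells in medium with 1% FBS, compound concentration series at 37 °C and 5% CO2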
T2 construct: expressed in transfected cells; host or cells: Ba/F3 (DSMZ ACC-300), lentiviral transduction, puromycin selection, IL3 depletion

EGFR L858R&T790M = target: T3, EGFR L858R&T790M (Homo sapiens, UniProt P00533, L858R/T790M); test: EGFR L858R and T790M cellular phosphorylation inhibition in NCI-H1975 (MSD); assay type: cell-based; settings: NCI-H1975 cells, 4 h compound, p-EGFR(Y1068)/total EGFR; read-out: EGFR L858R and T790M mutation IC50;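 also: phosphorylated and total EGFR detected by electrochemiluminescence, cells exposed to compound in medium containing 1% FBS at 37 °C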
T3 construct: host or cells: NCI-H1975

[3] = target: T4, human Her2 exon 20 insertion mutation YVMA (Homo sapiens, UniProt P04626, INS775YVMA); test: Her2 Exon 20 YVMA insertion cellular phosphorylation inhibition (MSD p-Her2 Y1248/total Her2); assay type: cell-based; settings: Her2 YVMAins cells, 4 h compound;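 also: lentivirally transduced NIH-3T3 cells in 1% FBS medium, electrochemiluminescent MSD read-out, graded compound concentrations at 37 °C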
T4 construct: expressed in transfected cells; host or cells: NIH-3T3, lentiviral transduction, puromycin selection

WT EGFR = target: T5, WT EGFR (Homo sapiens, UniProt P00533); test: WT EGFR cellular phosphorylation inhibition in A-431 (hEGF stimulated, MSD); assay type: cell-based; settings: A431 cells, 4 h compound, then 100 ng/ml hEGF 10 min;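 also: electrochemiluminescence read-out of EGFR Tyr1068 phosphorylation expressed as ratio to total EGFR, cells kept in medium with 1% FBS, compounds tested as a concentration series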
T5 construct: host or cells: A-431

Ba/F3 EGFR NPH ins cells = test: Cell proliferation, Ba/F3 EGFR NPH ins (CellTiter-Glo, 72 h); assay type: cell-based; settings: Ba/F3 EGFR, 72 h, Ba/F3 EGFR NPH ins, 72 h proliferation; read-out: EGFR Exon20 NPH insertion GI50;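 also: IL3-independent cells carrying constitutively phosphorylated EGFR, compound dilution series, viable cells quantified by ATP luminescence, growth relative to DMSO wells after subtracting pre-dosing (day 0) baseline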
Ba/F3 EGFR ASV ins cells = test: Cell proliferation, Ba/F3 EGFR ASV ins (CellTiter-Glo, 72 h); assay type: cell-based; settings: Ba/F3 EGFR, 72 h, Ba/F3 EGFR ASV ins, 72 h proliferation; read-out: EGFR Exon20 ASV insertion GI50;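 also: IL3-independent Ba/F3 cells transduced with EGFR V769_D770insASV, cellular ATP luminescence after compound exposure, growth relative to DMSO control with the day-0 baseline reading subtracted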
Method: WT or mutant cells were seeded in 384 well plates at appropriate concentrations with corresponding growth media supplemented with 10% FBS, for each experiment, identical plates were prepared in duplicates, and the plates were incubated overnight. On the next day, one of each duplicated plates was dosed with tested compounds at a series of concentrations, and another one of the duplicated plate was analysied for G0 value. The dosed plates were incubate for another 72 h at 37° C. with 5% CO2 and the number of viable cells in each well of the G0 plates or the dosed plates were measured by CellTiter-Glo® Luminescent Cell Viability Assay (Promega). This assay is a luminescent method for determining the number viable cells through measurement of cellular ATP concentration by detection of luciferase activity. Detection reagents (15 µl) was dispensed into per well, and the plates were incubate for 30 min at room temperature. Then, the luminescence in each well was measured using the Envision plate reader (PerkinElmer). The percentage of proliferation was calculated based on the formula: %Proliferation= 100 × (G3 value of sample well-Go value)/(G3 value of DMSO control-Go value).

[4] = system: NCI-H1975 EGFR L858R/T790M cells; test: Cell proliferation, NCI-H1975 EGFR L858R/T790M (CellTiter-Glo, 72 h); assay type: cell-based; settings: Homo sapiens, NCI-H1975, 72 h, NCI-H1975, 72 h proliferation; read-out: EGFR L858R and T790M mutation GI50;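 also: viable cells quantified by luciferase-based ATP luminescence, proliferation expressed relative to DMSO-treated wells (100%) after subtracting a parallel plate read at the time of dosing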
[5] = system: Her2 exon 20 insertion YVMA transduced NIH-3T3 cell line; test: Cell proliferation, Her2 YVMAins NIH-3T3 (CellTiter-Glo, 72 h); assay type: cell-based; settings: Mus musculus, NIH3T3, 72 h, Her2 YVMAins cells, 72 h proliferation; read-out: Her2 Exon 20 YVMA insertion GI50;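 also: viable cells quantified by ATP luminescence, growth over a day-zero baseline plate expressed as percent of DMSO control growth, compound dilution series in 10% FBS medium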
WT EGFR cell line A-431 = test: Cell proliferation, WT EGFR A431 (CellTiter-Glo, 72 h); assay type: cell-based; settings: Homo sapiens, A-431, 72 h, A431, 72 h proliferation; read-out: EGFR WT A431 GI50;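 also: proliferation from a luminescent ATP viability signal, expressed as 100 × (treated minus time-zero plate) over (DMSO control minus time-zero plate), cells grown with 10% FBS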
OCI-LY-10 cells = test: BTK (wt) cell proliferation, OCI-LY-10 (CellTiter-Glo, 72 h); assay type: cell-based; settings: Homo sapiens, OCI-Ly10, 72 h, OCI-LY-10 cells, 72 h, CellTiter-Glo; read-out: BTK WT OCI-LY-10 GI50;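 also: viable cells quantified via cellular ATP luminescence, proliferation given as percent of DMSO control after subtracting a duplicate plate read at time of dosing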
TMD-8 cells = test: BTK (wt) cell proliferation, TMD-8 (CellTiter-Glo, 72 h); assay type: cell-based; settings: Homo sapiens, TMD8, 72 h, TMD-8 cells, 72 h, CellTiter-Glo; read-out: BTK WT TMD-8 GI50;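 also: viable cells quantified by ATP-based luminescence, proliferation expressed as percent of DMSO control after subtracting a time-zero baseline plate read at dosing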
Ri-1 cells = test: BTK (wt) cell proliferation, Ri-1 (CellTiter-Glo, 72 h); assay type: cell-based; settings: Ri-1, 72 h, Ri-1 cells, 72 h, CellTiter-Glo; read-out: BTK WT Ri-1 GI50;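 also: viable cells quantified as cellular ATP luminescence, proliferation normalized to a time-zero plate and the DMSO control, compounds tested across a dilution series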
DB cells = test: BTK (wt) cell proliferation, DB (CellTiter-Glo, 72 h); assay type: cell-based; settings: Homo sapiens, DB, DB cells, CellTiter-Glo, read-out: Non-BCR activated DB GI50;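 also: DB cells in 384-well plates given a dilution series of compound, viable cells read by ATP luminescence, growth expressed versus DMSO control after subtracting a time-zero plate reading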
[6] = Rat pharmacokinetic study after oral administration (SOA); assay type: in vivo; settings: male Han Wistar rats; for SOA DN AUCSYS (ng·h/mL)/(mg/kg): dose-normalised systemic AUC; for Cmax: rat, plasma, nominal 10 mg/kg (actual dose in c1)
Method: For rat pharmacokinetic studies, six male Han Wistar rats were purchased from Beijing Vital River and orally dosed with the test compound at 10 mg/kg in 0.5% Tween-80 and 0.5% hydroxypropyl methylcellulose (v/w). At, 0.5, 1, 2, 4, 7 and 16 hours post-dose, blood samples (>100 µL/time point) were collected from portal vein and via cardiac puncture into separate K2EDTA […] tubes, and then immediately centrifuged at 1500 g, 5 min at 4° C. to separate plasma. The plasma samples were deproteinized with 4 fold acetonitrile (including internal standard), vortex for 10 min and centrifuges for 10 minutes at 4000 g at 4° C.. The supernatantswere submitted to LC/MS/MS (API 5500, Applied Biosystems, Foster City) analysis. Two sets of standard curves were run at the beginning and end of each batch from plasma sample analysis.
Compound absorption was measured by portal vein AUC (AUCHPV) and systemic AUC (AUCSYS) observed maximum concentration (Cmax) in rats after oral administration. Dose is the actual dose used in SOA study. Find below in Table 9 data for exemplary tested compounds.

[7] = In vitro rat hepatocytes clearance assay; settings: male, rat, cryopreserved rat hepatocytes (suspension), rat hepatocytes Clint (µL/min/10^6cells), 1 µM-range incubation up to 100 min
Method: The protocol for rat/human hepatocytes metabolic stability assay is employed to determine the clearance of the compounds of the present disclosure in vitro.
Rat hepatocytes in male gender and human hepatocytes in mixed gender were obtained from commercial vendors (e.g., BioreclamationIVT) and stored at -150° C. prior to use. 10 mM stock solutions of tested compounds were prepared in DMSO. Thawing medium and supplement incubation medium (serum-free) were placed in a 37° C. water bath for at least 15 minutes prior to use. Stock solutions were diluted to 100 µM by combining 198 µL acetonitrile and 2 µL of 10 mM stock solution.
Vials of cryopreserved hepatocytes were removed from storage, ensured that vials remain at cryogenic temperatures. The vials were thawed in a 37° C. water bath with gently shaking. Vials were kept in water bath until all ice crystals had dissolved and were no longer visible. Vials were sprayed with 70% ethanol before being transferred to a biosafety cabinet. And then the contents were poured into the 50 mL thawing medium conical tube. Vials were centrifuged at 100 g for 10 minutes at room temperature.
Cell viability and density were counted using a Trypan Blue exclusion, and then cells were diluted with serum-free incubation medium to a working cell density of 1 × 10^6 viable cells/ml. […] The inactivated hepatocytes were used to prepare negative samples, which were used to exclude the misleading factor that resulted from instability of chemical itself.
Aliquots of 247.5 µL hepatocytes were dispensed into each well of a 96-well non-coated plate. The plate was placed in the incubator on an orbital shaker for approximately 10 minutes. Aliquots of 2.5 µL of the 100 µM test compounds were added into respective wells of the non-coated 96-well plate to start the reaction. This assay was performed in duplicate. The plate was incubated in the incubator on an orbital shaker for the designed time points. […] Samples were centrifuges for 20 minutes at 4000 g and aliquots of 100 µL of the supernatants were used for LC-MS/MS analysis for measurement of test compounds
In vitro hepatocyte clearance was estimated based on determination of elimination half-life (T½) of compounds disappearance from their initial concentrations. Peak area ratios of each compound (test or control) to IS was calculated. Ln (%Control) versus Incubation Time (min) curve was plotted, and the slope of a linear fitting line was calculated.

[8] = In vitro human hepatocytes clearance assay; settings: both, human, cryopreserved human hepatocytes (suspension), human hepatocytes Clint (µL/min/10^6cells), mixed gender human hepatocytes, incubation up to 100 min
Phospho-BTK (Tyr223) = target: T6, Phospho-BTK (Tyr223) (Homo sapiens, UniProt Q06187); test: p-BTK assay in Ramos cells (HTRF Phospho-BTK Tyr223); assay type: cell-based; settings: pervanadate stimulated, read-out: p-BTK (Romas) IC50
T6 construct: endogenous in cells; host or cells: Ramos
Method: The assay plates were then incubated for 30 minutes at 37° C., 5% CO2. 300 uM Per vanadate (3X) was added to each well and the assay plates were again incubated for 60 minutes at 37° C., 5% CO2. Phospho-BTK (Tyr223) is detected using the HTRF® reagents (Cisbio) according to the manufacturer’s one-plate assay protocol.

BTK [9] = target: T7, BTK (Homo sapiens, UniProt Q06187); test: BTK target site occupancy ELISA (PBMC); assay type: cell-based; settings: BTK receptor occupancy
Method: An enzyme-linked immunosorbent assay (ELISA) method for the detection of free uninhibited Btk in mouse and human lysates. Human or mouse whole blood were incubated with compound for 2 hour at 37° C. Whole blood were lysed in ice-cold lysis buffer containing 50 mM Tris-HCl, pH 7.5, 150 mM NaCl, 1 mM EDTA,1% Triton X-100. […] Samples were transferred to a streptavidin-coated 96-well ELISA plate and mixed while shaking for 1 hour at room temperature. The α-Btk antibody (1:500; clone number D3H5, Cell signaling Technology, Danvers, MA, USA) was then added to the well and incubated for 1 hour at room temperature. After wash, goat α-rabbit-FW (1:5000 dilution in PBS+ 0.05% Tween-20 + 1% BSA) was added to each well and incubated for 1 h at room temperature. The ELISA was developed with addition of tetramethyl benzidine (TMB) followed by Stop Solution and read at OD 450 nm.

BTK [10] = target: T7, BTK; test: BTK target site occupancy ELISA (Ramos); assay type: cell-based; design: endogenous in cells; host or cells: Ramos; settings: BTK receptor occupancy, read-out: Occupancy (Romas) IC50

T3 sequence (P00533 25-1210 T790M/L858R): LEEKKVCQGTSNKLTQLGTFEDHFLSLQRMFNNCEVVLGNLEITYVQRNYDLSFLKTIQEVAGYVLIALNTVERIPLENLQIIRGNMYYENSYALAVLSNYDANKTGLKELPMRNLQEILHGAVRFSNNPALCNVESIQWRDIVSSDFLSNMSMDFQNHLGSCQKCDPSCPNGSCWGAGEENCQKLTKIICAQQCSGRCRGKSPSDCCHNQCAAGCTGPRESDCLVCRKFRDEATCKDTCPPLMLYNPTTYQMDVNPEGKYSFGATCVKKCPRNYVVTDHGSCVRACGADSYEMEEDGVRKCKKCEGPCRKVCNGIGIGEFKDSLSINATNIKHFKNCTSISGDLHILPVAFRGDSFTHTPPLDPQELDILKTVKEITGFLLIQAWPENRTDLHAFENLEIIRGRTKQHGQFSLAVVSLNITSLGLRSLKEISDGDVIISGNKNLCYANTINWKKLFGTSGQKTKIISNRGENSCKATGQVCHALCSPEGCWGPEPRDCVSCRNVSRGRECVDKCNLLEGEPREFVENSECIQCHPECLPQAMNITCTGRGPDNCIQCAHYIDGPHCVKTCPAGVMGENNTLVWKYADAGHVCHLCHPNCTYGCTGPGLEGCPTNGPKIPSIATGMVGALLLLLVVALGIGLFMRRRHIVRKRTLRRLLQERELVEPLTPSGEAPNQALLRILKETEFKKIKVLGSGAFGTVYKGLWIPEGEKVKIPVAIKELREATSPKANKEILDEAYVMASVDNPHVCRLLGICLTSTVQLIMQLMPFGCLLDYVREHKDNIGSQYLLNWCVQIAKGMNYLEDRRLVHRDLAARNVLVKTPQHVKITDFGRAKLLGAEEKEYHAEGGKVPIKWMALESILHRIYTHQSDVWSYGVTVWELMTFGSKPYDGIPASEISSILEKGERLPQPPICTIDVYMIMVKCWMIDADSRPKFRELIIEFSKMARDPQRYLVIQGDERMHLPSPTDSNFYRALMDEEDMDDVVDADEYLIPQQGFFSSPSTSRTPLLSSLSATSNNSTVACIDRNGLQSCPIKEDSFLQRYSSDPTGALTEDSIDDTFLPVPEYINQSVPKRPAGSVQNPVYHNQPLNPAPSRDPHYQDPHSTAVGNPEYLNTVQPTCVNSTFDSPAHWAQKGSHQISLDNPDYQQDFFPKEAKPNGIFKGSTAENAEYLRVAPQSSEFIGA
T5 sequence (P00533 25-1210): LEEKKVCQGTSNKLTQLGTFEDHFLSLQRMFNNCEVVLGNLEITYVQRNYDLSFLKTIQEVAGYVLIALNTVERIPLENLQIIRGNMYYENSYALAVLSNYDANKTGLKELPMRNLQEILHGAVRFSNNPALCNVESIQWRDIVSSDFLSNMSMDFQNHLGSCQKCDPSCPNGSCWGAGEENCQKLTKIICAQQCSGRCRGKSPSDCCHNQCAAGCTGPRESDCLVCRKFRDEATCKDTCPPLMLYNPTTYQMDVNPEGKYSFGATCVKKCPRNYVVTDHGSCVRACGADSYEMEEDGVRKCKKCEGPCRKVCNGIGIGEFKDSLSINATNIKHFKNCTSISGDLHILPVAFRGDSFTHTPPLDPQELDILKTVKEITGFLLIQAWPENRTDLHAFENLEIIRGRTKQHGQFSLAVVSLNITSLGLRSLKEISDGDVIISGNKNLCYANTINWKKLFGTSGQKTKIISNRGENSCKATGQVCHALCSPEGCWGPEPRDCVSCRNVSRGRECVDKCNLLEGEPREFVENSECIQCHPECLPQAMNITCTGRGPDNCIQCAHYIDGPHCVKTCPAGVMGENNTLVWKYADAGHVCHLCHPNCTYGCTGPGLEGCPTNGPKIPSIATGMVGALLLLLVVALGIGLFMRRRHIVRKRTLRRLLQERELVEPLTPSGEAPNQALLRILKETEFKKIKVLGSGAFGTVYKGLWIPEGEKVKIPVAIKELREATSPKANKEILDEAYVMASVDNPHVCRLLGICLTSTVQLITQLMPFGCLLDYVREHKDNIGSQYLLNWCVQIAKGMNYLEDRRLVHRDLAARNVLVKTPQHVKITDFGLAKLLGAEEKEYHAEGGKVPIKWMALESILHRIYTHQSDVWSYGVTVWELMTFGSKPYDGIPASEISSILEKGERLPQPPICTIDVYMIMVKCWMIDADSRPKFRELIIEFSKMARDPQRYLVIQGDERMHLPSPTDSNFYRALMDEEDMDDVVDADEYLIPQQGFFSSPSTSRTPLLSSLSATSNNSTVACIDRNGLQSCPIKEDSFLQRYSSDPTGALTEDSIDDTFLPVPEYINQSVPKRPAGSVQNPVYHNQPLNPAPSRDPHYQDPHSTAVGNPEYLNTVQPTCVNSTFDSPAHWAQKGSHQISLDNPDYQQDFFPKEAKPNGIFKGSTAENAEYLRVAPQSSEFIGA
T4 sequence (P04626 with tags, fused parts or gaps INS775YVMA): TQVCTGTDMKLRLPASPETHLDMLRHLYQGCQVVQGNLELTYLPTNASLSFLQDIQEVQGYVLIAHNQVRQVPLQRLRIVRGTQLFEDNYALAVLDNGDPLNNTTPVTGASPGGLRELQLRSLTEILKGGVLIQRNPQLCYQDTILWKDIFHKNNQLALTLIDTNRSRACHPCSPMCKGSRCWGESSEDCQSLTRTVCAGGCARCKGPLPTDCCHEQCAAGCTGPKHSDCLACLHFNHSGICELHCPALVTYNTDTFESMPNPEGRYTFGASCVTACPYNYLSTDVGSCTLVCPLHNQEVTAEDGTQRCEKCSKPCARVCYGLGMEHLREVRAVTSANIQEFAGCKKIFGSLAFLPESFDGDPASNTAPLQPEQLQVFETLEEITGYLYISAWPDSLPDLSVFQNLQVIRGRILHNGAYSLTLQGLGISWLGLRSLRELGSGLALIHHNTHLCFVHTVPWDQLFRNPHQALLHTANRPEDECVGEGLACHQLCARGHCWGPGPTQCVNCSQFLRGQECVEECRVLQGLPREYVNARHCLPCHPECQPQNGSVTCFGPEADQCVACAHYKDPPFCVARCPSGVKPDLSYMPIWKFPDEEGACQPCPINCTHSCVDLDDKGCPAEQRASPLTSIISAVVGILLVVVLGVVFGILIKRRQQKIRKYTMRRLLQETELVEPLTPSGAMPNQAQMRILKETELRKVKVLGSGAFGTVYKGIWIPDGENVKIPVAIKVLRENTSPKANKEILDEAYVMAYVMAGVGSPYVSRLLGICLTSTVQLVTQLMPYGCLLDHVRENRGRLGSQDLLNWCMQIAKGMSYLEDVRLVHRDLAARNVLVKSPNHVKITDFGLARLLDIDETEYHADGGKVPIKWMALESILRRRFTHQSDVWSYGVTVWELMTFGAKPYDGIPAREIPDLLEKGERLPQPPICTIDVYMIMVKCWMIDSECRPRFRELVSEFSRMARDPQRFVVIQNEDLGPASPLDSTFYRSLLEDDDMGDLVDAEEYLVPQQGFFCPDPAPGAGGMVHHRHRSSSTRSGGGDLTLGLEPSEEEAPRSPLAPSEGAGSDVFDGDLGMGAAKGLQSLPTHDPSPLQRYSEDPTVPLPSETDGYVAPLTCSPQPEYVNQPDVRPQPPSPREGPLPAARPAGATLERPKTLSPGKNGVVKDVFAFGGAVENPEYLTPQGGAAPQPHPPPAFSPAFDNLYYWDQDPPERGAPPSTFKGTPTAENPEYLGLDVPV
T2 sequence (P00533 with tags, fused parts or gaps INS769ASV): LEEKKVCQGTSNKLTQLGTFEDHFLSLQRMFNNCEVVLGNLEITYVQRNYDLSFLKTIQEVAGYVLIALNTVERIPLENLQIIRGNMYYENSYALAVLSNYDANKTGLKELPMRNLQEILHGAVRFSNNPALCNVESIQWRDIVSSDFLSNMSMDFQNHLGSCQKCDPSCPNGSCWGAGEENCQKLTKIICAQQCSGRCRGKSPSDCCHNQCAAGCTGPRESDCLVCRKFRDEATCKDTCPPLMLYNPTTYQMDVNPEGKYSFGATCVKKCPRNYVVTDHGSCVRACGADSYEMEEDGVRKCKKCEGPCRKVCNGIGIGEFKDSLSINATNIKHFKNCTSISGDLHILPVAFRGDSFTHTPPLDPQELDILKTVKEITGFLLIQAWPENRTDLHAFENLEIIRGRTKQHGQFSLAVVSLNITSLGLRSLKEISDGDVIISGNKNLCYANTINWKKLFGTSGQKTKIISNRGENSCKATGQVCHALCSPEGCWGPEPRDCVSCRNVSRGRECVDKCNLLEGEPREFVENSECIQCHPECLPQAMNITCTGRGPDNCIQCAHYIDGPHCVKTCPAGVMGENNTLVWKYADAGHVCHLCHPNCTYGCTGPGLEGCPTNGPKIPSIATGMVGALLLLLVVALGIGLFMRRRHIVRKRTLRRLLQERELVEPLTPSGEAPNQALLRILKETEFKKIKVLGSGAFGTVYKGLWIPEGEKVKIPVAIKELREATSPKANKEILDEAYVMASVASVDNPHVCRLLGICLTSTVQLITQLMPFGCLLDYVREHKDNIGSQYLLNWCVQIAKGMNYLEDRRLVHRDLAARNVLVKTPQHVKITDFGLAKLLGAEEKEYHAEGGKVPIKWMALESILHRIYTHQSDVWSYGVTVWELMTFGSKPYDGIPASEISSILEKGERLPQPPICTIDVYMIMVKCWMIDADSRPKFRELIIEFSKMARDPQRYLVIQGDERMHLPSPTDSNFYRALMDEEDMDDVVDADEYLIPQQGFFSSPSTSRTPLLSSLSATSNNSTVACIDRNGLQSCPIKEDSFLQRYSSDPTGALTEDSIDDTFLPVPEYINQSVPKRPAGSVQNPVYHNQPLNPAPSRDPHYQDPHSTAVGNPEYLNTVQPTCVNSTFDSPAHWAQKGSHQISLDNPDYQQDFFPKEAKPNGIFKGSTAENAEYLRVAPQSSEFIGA

SMILES	IC50 [1]	IC50 [2]	IC50 (EGFR L858R&T790M)	IC50 [3]	IC50 (WT EGFR)	GI50 (Ba/F3 EGFR NPH ins cells)	GI50 (Ba/F3 EGFR ASV ins cells)	GI50 [4]	GI50 [5]	GI50 (WT EGFR cell line A-431)	GI50 (OCI-LY-10 cells)	GI50 (TMD-8 cells)	GI50 (Ri-1 cells)	GI50 (DB cells)	SOA DN AUCSYS (ng·h/mL)/(mg/kg) [6]	Cmax [6]	hepatocyte CLint at 1 µM [7]	hepatocyte CLint at 1 µM [8]	other results
C=CC(=O)Nc1cc(Nc2nccc(Nc3cc(Cl)c(F)cc3C(C)(C)O)n2)c(OC)cc1N1CC[C@@H](CN(C)C)C1 [Compound 86, (S)-N-(5-(4-(5-chloro-4-fluoro-2-(2-hydroxypropan-2-yl)phenylamino)pyrimidin-2-ylamino)-2-(3-((dimethylamino)methyl)pyrrolidin-1-yl)-4-methoxyphenyl)acrylamide]	21.5 nM	17.9 nM	0.6 nM	9.3 nM	195 nM	59.8 nM	90.9 nM	29.1 nM	249 nM	45.8 nM	7.8 nM	11.4 nM	18.6 nM	> 3000 nM	77.8 (ng·h/mL)/(mg/kg)	76.5 ng/mL	16.2 µL/min/1e6 cells	4.32 µL/min/1e6 cells	–
C=CC(=O)Nc1cc(Nc2ncnc(Nc3cc(Cl)c(F)cc3C(C)(C)O)n2)c(OC)cc1N1CC[C@@H](N(C)C)C1 [Compound 33, (R)-N-(5-(4-(5-chloro-4-fluoro-2-(2-hydroxypropan-2-yl)phenylamino)-1,3,5-triazin-2-ylamino)-2-(3-(dimethylamino)pyrrolidin-1-yl)-4-methoxyphenyl)acrylamide]	14 nM	6.9 nM	0.6 nM	7.8 nM	12.2 nM	29.6 nM	22.1 nM	3.1 nM	71.1 nM	12.7 nM	0.97 nM	2.5 nM	2 nM	> 3000 nM	432 (ng·h/mL)/(mg/kg)	370 ng/mL	6.99 µL/min/1e6 cells	2.77 µL/min/1e6 cells	–
C=CC(=O)Nc1cc(Nc2ncnc(Nc3cc(Cl)c(F)cc3C(C)(C)O)n2)c(OC)cc1N1C[C@@H](F)[C@@H](N(C)C)C1 [Compound 93, N-(5-(4-(5-chloro-4-fluoro-2-(2-hydroxypropan-2-yl)phenylamino)-1,3,5-triazin-2-ylamino)-2-((3 S,4R)-3-(dimethylamino)-4-fluoropyrrolidin-1-yl)-4-methoxyphenyl) acrylamide]	33.1 nM	19.4 nM	1.6 nM	15.1 nM	51.6 nM	105 nM	83.2 nM	7.3 nM	166 nM	21.5 nM	0.92 nM	3.1 nM	3.2 nM	> 3000 nM	249 (ng·h/mL)/(mg/kg)	498 ng/mL	11.5 µL/min/1e6 cells	5.01 µL/min/1e6 cells	–
C=CC(=O)Nc1cc(Nc2ncnc(Nc3cc(F)c(F)cc3C(C)(C)O)n2)c(OC)cc1N1CC(CN(C)C)C1 [Compound 23, N-(5-(4-(4,5-difluoro-2-(2-hydroxypropan-2-yl)phenylamino)-1,3,5-triazin-2-ylamino)-2-(3-((dimethylamino)methyl)azetidin-1-yl)-4-methoxyphenyl)acr ylamide]	321 nM	87.6 nM	1.3 nM	52.7 nM	101 nM	224 nM	159 nM	34.7 nM	271 nM	76.8 nM	1.49 nM	3.93 nM	3.71 nM	> 3000 nM	–	–	–	–	IC50 (Phospho-BTK (Tyr223)): 1.6 nM; IC50 (BTK [9]): 1.1 nM; IC50 (BTK [10]): 1.1 nM
C=CC(=O)Nc1cc(Nc2nccc(Nc3cc(Cl)c(F)cc3C(C)(C)O)n2)c(OC)cc1N1C[C@@H](F)[C@@H](N(C)C)C1 [Compound 79, N-(5-(4-(5-chloro-4-fluoro-2-(2-hydroxypropan-2-yl)phenylamino)pyrimidin-2-ylamino)-2-((3 S,4R)-3-(dimethylamino)-4-fluoropyrrolidin-1-yl)-4-methoxyphenyl)acrylamide]	29.5 nM	43.2 nM	1.3 nM	18.8 nM	356 nM	167 nM	176 nM	13 nM	233 nM	124 nM	8.1 nM	14.4 nM	80.9 nM	> 3000 nM	50.1 (ng·h/mL)/(mg/kg)	52.5 ng/mL	24.1 µL/min/1e6 cells	7.36 µL/min/1e6 cells	–
